# Test results from US10654890B2, “Cyclic peptide derivative, method for preparing same and composition thereof” (priority 2014, dated 2020).
# Where a name gives a salt, the structure may show the parent alone.
# Assays:
# [1] = system: senescence-accelerated model mouse SAMP8; assay: Step through passive avoidance test; assay type: in vivo
# Description: As a mouse for an in vivo test of the cyclic peptide derivative, senescence-accelerated model mouse SAMP8 which is used as a cognitive disorder model animal of initial Alzheimer's disease accompanied with aging was selected, and as a control, SAMR1 mouse with normal aging was selected.
# 19-Week old male mice of SAMR1 and SAMP8 were purchased from Japan SLC, Inc., and divided into 5 groups, i.e., mouse group with normal aging (SAMR1), senescence-accelerated model mouse group (SAMP8), {P8+donepezil hydrochloride 1250 μg/kg/day} group as a positive control, and {P8+cyclic peptide derivative 2.5 μg/kg/day} group and {P8+cyclic peptide derivative 25 μg/kg/day} group as a test group. The animal was individually kept, i.e., one animal per cage, in a room with controlled environment {room temperature: 23±2° C., light and dark cycle: lighting time of 12 hours (time with light: 07:00 to 19:00), time without light: 12 hours}. The test was carried out in a time window of from 13:00 to 18:00 in an incubator with constant temperature and constant humidity (temperature 23±2° C., humidity 50±10%). After 10 days of an acclimation period, all mice were provided with standard meal (MEQ, Oriental Yeast Company) and body weight of the animal was recorded everyday during the entire test period. […]
# (3) {P8+donepezil hydrochloride 1250 μg/kg/day} group: As a positive control, donepezil hydrochloride (Sanyo Chemical Laboratories CO., LTD.) was dissolved in MQ and prepared to have a concentration of 1250 μg/kg (bodyweight), and then orally administered to a SAMP8 for 5 weeks by using a gastric sonde. The concentration was accurately calculated based on the bodyweight which has been measured every day. […]
# (4) {P8+cyclic peptide derivative 2.5 μg/kg/day} group: As a test group, the cyclic peptide derivative was dissolved in MQ and prepared to have a concentration of 2.5 μg/kg (bodyweight), and then orally administered to a SAMP8 for 5 weeks by using a gastric sonde. The concentration was accurately calculated based on the bodyweight which has been measured every day. […]
# [2] = system: senescence-accelerated model mouse SAMP8; assay: Coefficient of friction measurement test of body hair; assay type: in vivo
# Description: Considering that the anti-aging effect for body hair and hair has been analyzed until now by using a senescence-accelerated model mouse (SAMP8) (Non Patent Literature 40), the inventors of the present invention also conducted an analysis regarding the anti-aging effect for body hair and hair for a senescence-accelerated model mouse administered with the cyclic peptide derivative by using a static and dynamic friction tester and a scanning probe microscope (SPM).
# Coefficient of friction of animal hair and body hair is closely related to the state of cuticle as a scale-like tissue present on a surface of hair and body hair, and it is considered that the value of coefficient of friction (COF) increases as damages on cuticle of a hair and body hair increases (Non Patent Literature 40). It is also known that, when the damages on cuticle are high, moisture or nutrients of hair and body hair are lost from the damaged part of cuticle.
# As for the apparatus, a handy rub tester TL701 (manufactured by Trinity-Lab Inc.), which is a static and dynamic friction tester, was used. […] Namely, the apparatus even allows measurement of friction on a surface of skin or materials which have a complex curved surface.
# The contact member of a static and dynamic friction tester was closely pressed on body hair on forehead part of a mouse, and while applying a load of about 1 N, the member was moved, through an area between two ears, from the forehead to neck part of the mouse for about ten seconds, and the coefficient of friction (COF) was measured. The coefficient of friction (COF) was measured 5 to 10 times per mouse, and an average value thereof was calculated.
SMILES,"latency in post-shock trial ([1]; SAMP8, oral 1250 μg/kg/day, compared to SAMP8 not administered with anything, p<0.05)","coefficient of friction (COF) of body hair ([2]; SAMP8, oral donepezil hydrochloride 1250 μg/kg/day)","contextual learning ability (latency in post-shock trial) ([1]; SAMP8, oral 2.5 μg/kg/day)","contextual learning ability (latency in post-shock trial) ([1]; SAMP8, oral 25 μg/kg/day)","coefficient of friction (COF) of body hair ([2]; SAMP8, oral 2.5 μg/kg/day)","coefficient of friction (COF) of body hair ([2]; SAMP8, oral 25 μg/kg/day)"
"COc1cc2c(cc1OC)C(=O)C(CC1CCN(Cc3ccccc3)CC1)C2 (stereo not drawn) [donepezil hydrochloride, reference compound]",short latency in significant sense,the same level as that of the senescence-accelerated model mouse,–,–,–,–
CCC1(C)Oc2cc(ccc2O)C(O)C(NC)C(=O)NC(C(C)C)C(=O)NC1C(=O)NC(CCC(=O)O)C(=O)O (stereo not drawn) [cyclic peptide derivative],–,–,recovered to the level of a mouse with normal aging,recovered to the level of a mouse with normal aging,lowered to the same level as those of a mouse with normal aging,lowered to the same level as those of a mouse with normal aging
